Blank lines part the entries; values can stand above or below the molecule they belong to.
Legend:
[1] = target: T1, androgen receptor (Homo sapiens, UniProt P10275); assay: Yeast two-hybrid screening of unbiased X15 peptide library, ligand-induced β-galactosidase activity (FIG. 3, Table 503); type: cell-based; parameters: expressed in transfected cells; host or cells: Saccharomyces cerevisiae PJ69-4α; conditions: for Yeast Specificity Graph (FIG. 3): CPA: ligand CPA; for Yeast Specificity Graph (FIG. 3): DHT: ligand DHT; for Yeast Specificity Graph (FIG. 3): MPA: ligand MPA; for Yeast Specificity Graph (FIG. 3): RU: ligand RU; for Yeast Specificity Graph (FIG. 3): Test: ligand Test; for Yeast Specificity Graph (FIG. 3): No Lig: no ligand
T1 sequence (P10275 1-920): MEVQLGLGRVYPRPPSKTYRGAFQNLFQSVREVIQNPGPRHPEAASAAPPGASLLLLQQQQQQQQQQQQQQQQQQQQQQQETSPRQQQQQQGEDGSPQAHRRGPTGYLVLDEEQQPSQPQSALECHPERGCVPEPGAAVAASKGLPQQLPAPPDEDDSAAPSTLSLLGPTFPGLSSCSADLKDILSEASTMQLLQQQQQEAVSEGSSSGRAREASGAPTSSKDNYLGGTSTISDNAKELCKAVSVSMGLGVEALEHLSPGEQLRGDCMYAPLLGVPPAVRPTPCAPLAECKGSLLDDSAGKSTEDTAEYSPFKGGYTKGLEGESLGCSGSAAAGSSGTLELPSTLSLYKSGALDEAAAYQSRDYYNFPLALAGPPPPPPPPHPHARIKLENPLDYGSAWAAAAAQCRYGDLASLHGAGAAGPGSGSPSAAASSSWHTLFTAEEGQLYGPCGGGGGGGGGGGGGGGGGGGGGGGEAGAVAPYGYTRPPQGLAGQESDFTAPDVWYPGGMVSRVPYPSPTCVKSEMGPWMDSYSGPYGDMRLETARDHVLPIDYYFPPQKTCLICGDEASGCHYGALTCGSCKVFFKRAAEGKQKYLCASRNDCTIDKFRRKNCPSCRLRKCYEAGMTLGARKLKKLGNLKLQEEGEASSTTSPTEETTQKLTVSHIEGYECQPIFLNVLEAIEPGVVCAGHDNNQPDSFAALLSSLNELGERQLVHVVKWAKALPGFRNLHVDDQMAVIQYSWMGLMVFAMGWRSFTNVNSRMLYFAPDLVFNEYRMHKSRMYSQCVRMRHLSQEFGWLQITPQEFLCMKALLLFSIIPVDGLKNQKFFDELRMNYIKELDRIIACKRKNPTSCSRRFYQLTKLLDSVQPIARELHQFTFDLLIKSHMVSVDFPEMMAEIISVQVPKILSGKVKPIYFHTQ
Description: Our library contained predominantly 15 random amino acid residues/peptide in order to identify motifs that might interact with nuclear receptor domains. If ligand is provided to the cells, one can screen for peptides that interact with the ligand-bound receptor. […] Included at the ends of the oligonucleotide were the synthetic restriction endonuclease cleavage sites, EcoRI or Mfe I (5′ end) and Sal I (3′ end). Oligonucleotides were annealed, then cleaved with excess restriction endonuclease and purified on agarose gels. The purified set of oligonucleotides was subcloned as an in-frame carboxy-terminal fusion to a Gal4 DNA binding domain (plasmid vector pMA424 derivative). […] The transformation mix was divided and grown on plates of selective media containing ligand and 25 mM 3-aminotriazole at 30° C. until colonies appeared in 3-7 days. […] Dihydrotestosterone (DHT) and medroxyprogesterone (MPA) were added to the media at 100 nM to identify peptides that interact with the receptor in the presence of ligand. After colonies appeared they were picked and dispersed into individual wells of a 96-well plate containing rich media (YPD).
To determine ligand dependence, two microliter aliquots were removed from the cell suspension, and arrayed and spotted onto each of two rectangular agar plates, one with 100 nM ligand and one without ligand. Growth was monitored daily.
A secondary test of ligand dependent activation was performed using the integrated GAL4-driven lacZ gene. Cell suspensions of the initial positive clones were diluted 20-fold into 20 microliters of rich media in a microplate and grown overnight at 30° C. in the presence and absence of ligand. Microplates were centrifuged for 5 minutes at 3000 rpm in a swinging table top centrifuge to pellet the yeast cells, and the overlying media was aspirated. […] An OD650 density determination was made to normalize the β-galactosidase activity. β-galactosidase activity was monitored following the addition of buffer containing chlorophenol red-1-galactopyranoside (CPRG) (Boehringer Mannheim) substrate at a final concentration of 0.5 mM. […] The maximum slope value of this measurement was normalized to cell density from the initial OD650 value, and the relative ligand dependence of β-galactosidase was determined by comparing the values plus and minus ligand.
In FIG. 3, all of these ligands were tested. The plasmids from true positives were extracted using standard yeast extraction protocols and re-transformed to verify the positive phenotype.

[2] = target: T1, androgen receptor; type: cell-based; parameters: expressed in transfected cells; conditions: for Mammalian Cell Specificity Graph (FIG. 4): DHT: ligand DHT; for Mammalian Cell Specificity Graph (FIG. 4): MPA: ligand MPA; for Mammalian Cell Specificity Graph (FIG. 4): RU486: ligand RU486
Description: We used a mammalian two-hybrid system to determine specificities of the AR-binding peptides previously identified, through screening of the aforementioned yeast library, as ligand-dependent in their binding activity. Ligand was provided to the cells so the interaction could be observed. The human hepatoma cell line, Huh-7, was used as the recipient of two-hybrid vectors, pM and pVP16 (Clontech) (FIGS. 6A and 6B), containing fusions with peptide and AR, respectively. According to Clontech literature, the Clontech vectors pM and VP16 generate fusions of protein X with the GAL4 DNA-BD and fusions of protein Y with the VP16AD, in the Mammalian MM Two-Hybrid Assay Kit (#K1602-1). (Note: pM and VP16 contain unique cloning sites in the same order and reading frame as the DNA-BD and AD, respectively, vectors in the yeast […] Two-Hybrid Systems.) A third vector, pG5CAT, provides a CAT reporter gene under the control of a GAL4-responsive element and minimal promoter of the adenovirus E1b. The three vectors are cotransfected into any suitable mammalian host cell line by standard methods. The interaction between proteins X and Y is then assayed by measuring CAT gene expression by any standard method. In the absence-of activation (i.e., no protein-protein interaction), the minimal E1b promoter will not express significant levels of CAT.
Briefly, cells are seeded in a 24-well culture plate to a density of 50-80% confluence in phenol red-free media containing charcoal-dextran stripped fetal bovine serum (10%). Following incubation overnight, cells are transfected with plasmids pM-peptide, pVP16-AR, pCMV-b-gal, and p5XGAL-Luc3 DNAs using lipofectamine 2000 (LifeTech) according to the manufacturer's protocol. Transfections are allowed to proceed for 6 hours and the transfection media is aspirated and replaced with recovery media for 18 hours. Following the recovery period, cells are treated with compound for 24 hours prior to cell harvesting. Cells are washed with PBS and then lysed using the lysis buffer from the Galacto-Light Plus β-galactosidase assay kit (Tropix). Assays for luciferase and β-galactosidase were performed as described by the manufacturer. Peptide/AR interactions are described in terms of the luciferase activity normalized for transfection efficiency using β-galactosidase activity (see FIG. 4A). Two types of useful information arose from these methods: 1) we generated a panel of useful peptide probes to analyze the conformational state of AR, and 2) we “fingerprinted” AR modulators with respect to AR conformation (FIG. 4B). […] FIG. 4B is the converse of 4A. It compares the ability of six ligands (DHT, MPA, CYP, RU486, FLUT and DHEAs to interact with AR in the presence of each of four peptides (D30, 5G11, B8H3 and […]). Thus, it is a “fingerprint” of each of the six ligands using a four peptide panel. (Note that “1269” and D30″ refer to the same peptide.)

[3] = target: T2, ER α (UniProt P03372 1-595, limits assumed); assay: phage isolated on ERα-ERE; Estradiol
T2 construct: also called estrogen receptor α; ERα-ERE
T2 sequence (looked up): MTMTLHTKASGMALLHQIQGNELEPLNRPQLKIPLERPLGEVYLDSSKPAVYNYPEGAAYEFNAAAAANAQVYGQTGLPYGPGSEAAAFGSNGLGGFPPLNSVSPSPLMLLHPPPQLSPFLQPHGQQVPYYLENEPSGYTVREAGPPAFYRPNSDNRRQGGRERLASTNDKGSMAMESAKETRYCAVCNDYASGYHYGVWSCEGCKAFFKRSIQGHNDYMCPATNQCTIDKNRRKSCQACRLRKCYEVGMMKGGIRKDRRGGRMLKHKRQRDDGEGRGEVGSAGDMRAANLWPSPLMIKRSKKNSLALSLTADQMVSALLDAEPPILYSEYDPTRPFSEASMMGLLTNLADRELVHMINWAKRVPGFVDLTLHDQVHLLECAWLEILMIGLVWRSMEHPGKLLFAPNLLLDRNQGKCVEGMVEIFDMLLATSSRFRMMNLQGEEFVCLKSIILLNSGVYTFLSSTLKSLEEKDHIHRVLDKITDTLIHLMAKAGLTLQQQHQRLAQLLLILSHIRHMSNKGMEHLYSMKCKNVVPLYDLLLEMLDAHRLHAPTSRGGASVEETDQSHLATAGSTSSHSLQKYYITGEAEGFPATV

[4] = target: T3, Gal4 transcriptional activation domain (AD) fused in frame with AR (yeast, UniProt P10275 1-920, limits assumed); assay: cell-based or functional assay
T3 sequence (looked up): T1 sequence (P10275 1-920)

Molecule: EFRFPFHEMVREWESMGLERVRYAEP [M4D1]
Yeast Specificity Graph (FIG. 3): CPA [1]: −0.03955 | Yeast Specificity Graph (FIG. 3): DHT [1]: 0.3948 | Yeast Specificity Graph (FIG. 3): MPA [1]: 1.698 | Yeast Specificity Graph (FIG. 3): RU [1]: 0.1 | Yeast Specificity Graph (FIG. 3): Test [1]: 0.1337 | Yeast Specificity Graph (FIG. 3): No Lig [1]: 0

Fold induction [1]: 22 | Yeast Specificity Graph (FIG. 3): CPA [1]: 0.3927 | Yeast Specificity Graph (FIG. 3): DHT [1]: 3.807 | Yeast Specificity Graph (FIG. 3): RU [1]: −0.0 | Yeast Specificity Graph (FIG. 3): No Lig [1]: 0.1737 | Mammalian Cell Specificity Graph (FIG. 4): CYP. [2]: 10.47 Relative Light Units | Mammalian Cell Specificity Graph (FIG. 4): DHT [2]: 11.6 Relative Light Units | Mammalian Cell Specificity Graph (FIG. 4): MPA [2]: 11.33 Relative Light Units | Mammalian Cell Specificity Graph (FIG. 4): RU486 [2]: 3.879 Relative Light Units | Mammalian Cell Specificity Graph (FIG. 4): no compound [2]: 0.1316 Relative Light Units
Molecule: EFHSRLRVEVVSWGIGSTCSQANSGRISYDL* [B8H3]

Yeast Specificity Graph (FIG. 3): CPA [1]: 0.9726 | Yeast Specificity Graph (FIG. 3): DHT [1]: 3.964 | Yeast Specificity Graph (FIG. 3): RU [1]: 0.9 | Yeast Specificity Graph (FIG. 3): No Lig [1]: 0.6382 | Mammalian Cell Specificity Graph (FIG. 4): CYP. [2]: 4.462 Relative Light Units | Mammalian Cell Specificity Graph (FIG. 4): DHT [2]: 15.84 Relative Light Units | Mammalian Cell Specificity Graph (FIG. 4): MPA [2]: 8.029 Relative Light Units | Mammalian Cell Specificity Graph (FIG. 4): RU486 [2]: 0.1051 Relative Light Units | Mammalian Cell Specificity Graph (FIG. 4): no compound [2]: 0.05028 Relative Light Units
Molecule: EFRSSVFEQMYLCTGGSLDLOPS* [B5G11]

Fold induction [1]: 1 | Yeast Specificity Graph (FIG. 3): CPA [1]: 0.3955 | Yeast Specificity Graph (FIG. 3): DHT [1]: 0.6163 | Yeast Specificity Graph (FIG. 3): RU [1]: 0.4 | Yeast Specificity Graph (FIG. 3): No Lig [1]: 0.8753
Molecule: EFVNWDAVVPWSELVALLDLOPS [B8A10]

Yeast Specificity Graph (FIG. 3): CPA [1]: 0.2919 | Yeast Specificity Graph (FIG. 3): DHT [1]: 1.719 | Yeast Specificity Graph (FIG. 3): RU [1]: 0.5 | Yeast Specificity Graph (FIG. 3): No Lig [1]: 0.3711
Molecule: EFPELLAMTRWGRHAALLEPQRLPPPRTTTQPQTEFERMFFFTRPMRTTGLLDLOPS* [B2A7]

Mammalian Cell Specificity Graph (FIG. 4): CYP. [2]: 11.18 Relative Light Units | Mammalian Cell Specificity Graph (FIG. 4): DHT [2]: 12.59 Relative Light Units | Mammalian Cell Specificity Graph (FIG. 4): MPA [2]: 15.62 Relative Light Units | Mammalian Cell Specificity Graph (FIG. 4): RU486 [2]: 0.8461 Relative Light Units | Mammalian Cell Specificity Graph (FIG. 4): no compound [2]: 0.03854 Relative Light Units
Molecule: HPTHSSRLWELLMEATPTM [D30]

Fold induction [1]: 10 | Yeast Specificity Graph (FIG. 3): CPA [1]: 8.592 | Yeast Specificity Graph (FIG. 3): DHT [1]: 24.12 | Yeast Specificity Graph (FIG. 3): MPA [1]: 19.25 | Yeast Specificity Graph (FIG. 3): RU [1]: 6.8 | Yeast Specificity Graph (FIG. 3): Test [1]: 26.57 | Yeast Specificity Graph (FIG. 3): No Lig [1]: 2.53
Molecule: EFRQSFVSEILGGGWLPLDLOPS [M2H3]

binding result [3]: binds
B1: 2E (peptide)
peptide: SRSPILTHLLSLGSR

β-galactosidase activity (yeast two-hybrid), MPA [4]: 1.31 | β-galactosidase activity (yeast two-hybrid), Test [4]: 2.44
B2: B23H12 (peptide)
chain: MKLLSSIEQACDICRLKKLKCSKEKPKCAKCLKNNWECRYSPKTKRSPLTRAHLTEVESRLERLEQLFLLIFPREDLDMILKMDSLQDIKALLTGLFVQDNVNKDAVTDRLASVETDMPLTLRQHRISATSSSEESSNKGQRQLTVSEFPELLAMTRWGRHAALLEPQRLPPPRTTTQPQTEFERMFFFTRPMRTTGLLDLQPS

binding result [3]: binds
B3: 9E (peptide)
peptide: SSHGILWRLLSEGSR

binding result [3]: binds
B4: E1-1 (peptide)
peptide: HSHNHHSPWLFRLLGG

binding result [3]: binds
B5: E1-7 (peptide)
peptide: SRLTCLLQSNGWDSEQCSR

binding result [3]: binds
B6: 3E (peptide)
peptide: SSTGILWKLLTAESR

binding result [3]: binds
B7: E1-3 (peptide)
peptide: HSHPHHSHLLYKLMGG

binding result [3]: binds
B8: E1-4 (peptide)
peptide: HSHPLPPLLSRLLTGG
